Patent publication US20230070338A1, “SHP2 Inhibitor Dosing and Methods of Treating Cancer” (Revolution Medicines, Inc., priority 2020, published 2023)

Key:
[1] = system: tumors harboring NF1 LOF mutations; assay: RMC-4630-01 study: single agent activity in tumors harboring NF1 LOF; format: in vivo, human
From the text: (§1) FIG. 28 is a waterfall plot of patients with NSCLC or gynecologic tumors harboring NF1 LOF treated with RMC-4630. Data are presented for the efficacy evaluable population (N=6) defined as participants with baseline and at least one post-baseline scan or who died or had clinical progression prior to first post-baseline scan. One patient (NSCLC) with death due to clinical PD prior to first scan is not represented in this figure. NF1 LOF is loss, or significant reduction, in neurofibromin protein function is presumed from nature of mutation.
Single agent activity of RMC-4630 has also been reported in two patients with tumors harboring NF1 LOF mutations. […] This patient was diagnosed with a tumor harboring two NF1 LOF mutations, a POLE (DNA repair) mutation, and ultra-high tumor mutational burden. The patient had received two treatment regimens prior to starting RMC-4630. […] At two months, their tumor dimension had reduced from 1.7 cm to undetectable. CR was subsequently confirmed and they continue in CR at five months on study therapy.
as §1, with “Data” for “FIG. 28 is a waterfall plot of patients with NSCLC or gynecologic tumors harboring NF1 LOF treated with RMC-4630. Data”, “function which” for “function”, “from the” for “from”, “the mutation in the neurofibromin 1 gene.” for “mutation.”

proliferation = assay: Proliferation in vitro; format: cell-based
From the text: SHP2 inhibition with RMC-4630 inhibits ERK phosphorylation (pERK) and proliferation in vitro. Inhibition of pERK may be used as an assay monitoring or determining efficacy of treatment with a SHP2 inhibitor of the disclosure.

[2] = RMC-4630-01 phase 1 study: safety and tolerability
[3] = system: circulating KRAS^G12C tumor DNA (ctDNA); assay: Allelic burden of circulating KRAS G12C tumor DNA in patients; format: in vivo, human
From the text: Allelic burden of circulating KRAS^G12C tumor DNA (ctDNA) has been assessed prior to study and at least once on study in seven patients with tumors harboring KRAS^G12C (FIG. 19). KRAS^G12C DNA was detected in four of seven patients prior to study.

[4] = same uterine carcinosarcoma patient

With `Cc1nc(N2CCC3(CC2)CO[C@@H](C)[C@H]3N)c(CO)nc1Sc1ccnc(N)c1Cl` [RMC-4630] the response ([1]; one patient, uterine carcinosarcoma, two NF1 LOF mutations, 200 mg D1D4 reduced to 140 mg D1D4) was “complete response”, the tumor response ([1]; patient with NSCLC harboring NF1 LOF and KRASG12C) was “tumor shrinkage” and the “time on study therapy at which CR continues” value [1, 4] was “five months”. For the same molecule, the “tumor dimension at two months (baseline 1.7 cm)” value [1, 4] was “undetectable”, the effect on proliferation (proliferation) was “inhibits” and the “QTc, single reading in one patient (SAE, causality considered absent or unlikely by Sponsor)” value ([2]; 60 mg daily, no dose for three days, history of prolonged QTc, ondansetron) was “grade 3 prolongation of QTc”. For the same molecule, the safety/tolerability of schedule ([2]; D1, D2 schedule) was “improved safety/tolerability”, the maximum tolerated dose ([2]; D1, D4 schedule) was 140 mg and the “deaths (grade 5 AEs) ascribed to drug” value ([2]; daily administration) was “No deaths”. For the same molecule, the “maximum tolerated dose (putative MTD)” value ([2]; daily schedule) was 60 mg, the “patients with increase in alanine transaminase attributed to drug, all grades” value ([2]; daily schedule) was 10% and the “patients with increase in aspartate transaminase attributed to drug, all grades” value ([2]; daily schedule) was 16%. The pneumonitis ([2]; daily schedule) was “no reports”, the “recommended phase 2 dose” value ([2]; daily schedule) was about 60 mg and the “toxicities consistent with off-target effects” value ([2]; daily schedule) was “No toxicities”. For the same molecule, the “AEs with daily dosing compared with intermittent schedule” value ([2]; daily schedule, 49 patients) was “more frequent and severe AEs than the intermittent schedule”, the “patients with toxicities involving the lungs or respiratory system attributed in part to drug” value ([2]; daily schedule, eight patients) was 16% and the “serious adverse events possibly or probably related to study drug” value ([2]; daily schedule, three events) was 6%. The “patients with grade 3 or grade 4 increase in alanine transaminase or aspartate transaminase” value ([2]; daily schedule, two patients) was 4%, the “related grade 4 or grade 5 AEs” value ([2]; intermittent D1, D4 schedule, 14 patients) was “No related grade 4 or grade 5 AEs” and the “related SAE reported (grade 3 abdominal distension)” value ([2]; intermittent schedule, patient with pancreatic cancer, 200 mg twice weekly) was “One”. The “systemic activation of the immune system” value ([2]; treated subjects) was “little evidence”, the “allelic frequency of KRAS^G12C” value ([3]; one patient with colon cancer who had PD) was “increased” and the “circulating KRAS^G12C allele” value ([3]; three patients with NSCLC and PR or SD as best response) was “reduction”.
